Literature values as cited in patent publication US20120277197A1, “TIGECYCLINE FORMULATIONS” (WYETH, priority 2008, published 2012).

Conditions: cited from earlier work; for activity retained after frozen storage: after 14-23 days of frozen storage

CC(=O)OCC1=C(C(=O)O)N2C(=O)[C@@H](NC(=O)Cc3cccs3)[C@H]2SC1 [cephalothin]
activity retained after frozen storage: retained essentially all of their activity

CC1(C)S[C@@H]2[C@H](NC(=O)C(C(=O)O)c3ccccc3)C(=O)N2[C@H]1C(=O)O (some centres unmarked) [carbenicillin]
activity retained after frozen storage: retained essentially all of their activity

C[C@@H](O)[C@H]1C(=O)N2C(C(=O)O)=C(S[C@@H]3CN[C@H](C(=O)Nc4cccc(C(=O)O)c4)C3)[C@H](C)[C@H]12 [ertapenem]
stability of solutions frozen at −20° C. (frozen at −20° C.): extreme variability in stability

CC1(C)S[C@@H]2[C@H](NC(=O)[C@H](N)c3ccc(O)cc3)C(=O)N2[C@H]1C(=O)O [amoxycillin sodium]
stability on freezing solutions (in normal saline or in glucose): markedly reduced stability

penicillin
activity retained after frozen storage: retained essentially all of their activity
